Test results taken from ChEMBL document CHEMBL1201862, “PubChem BioAssay data set” (2004).
Activity calls are given as the source filed them.

What was measured:
[1] = THP-1 cell cytotoxicity, dose response, cytotoxicity control for non-replicating M. tuberculosis project (AID 489025); assay type: functional
[2] = Vero E6 cell cytotoxicity, dose response, cytotoxicity control for non-replicating M. tuberculosis project, secondary assay (AID 492998); assay type: functional, VeroE6; conditions: Vero C1008
cells = assay type: functional
[3] = molecular target: Glyceraldehyde-3-phosphate dehydrogenase (Homo sapiens, UniProt P04406)
Glyceraldehyde-3-phosphate dehydrogenase, sequence (P04406 whole entry): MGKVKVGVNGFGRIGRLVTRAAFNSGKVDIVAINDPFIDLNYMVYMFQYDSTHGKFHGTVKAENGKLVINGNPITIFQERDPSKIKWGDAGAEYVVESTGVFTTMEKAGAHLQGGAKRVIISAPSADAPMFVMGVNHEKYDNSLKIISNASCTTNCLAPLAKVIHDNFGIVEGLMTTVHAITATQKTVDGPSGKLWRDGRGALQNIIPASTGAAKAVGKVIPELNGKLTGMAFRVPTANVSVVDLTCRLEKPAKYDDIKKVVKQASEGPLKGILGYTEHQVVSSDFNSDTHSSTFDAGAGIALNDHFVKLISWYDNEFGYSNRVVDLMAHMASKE

Leucine aminopeptidase = molecular target: T1, Leucine aminopeptidase (Plasmodium falciparum 3D7, UniProt Q8IL11); test: P. falciparum M17LAP inhibitors, primary screen, biochemical, fluorogenic H-Leu-NHMec substrate, 1536-well (AID 1619); assay type: functional
T1 sequence (Q8IL11 whole entry): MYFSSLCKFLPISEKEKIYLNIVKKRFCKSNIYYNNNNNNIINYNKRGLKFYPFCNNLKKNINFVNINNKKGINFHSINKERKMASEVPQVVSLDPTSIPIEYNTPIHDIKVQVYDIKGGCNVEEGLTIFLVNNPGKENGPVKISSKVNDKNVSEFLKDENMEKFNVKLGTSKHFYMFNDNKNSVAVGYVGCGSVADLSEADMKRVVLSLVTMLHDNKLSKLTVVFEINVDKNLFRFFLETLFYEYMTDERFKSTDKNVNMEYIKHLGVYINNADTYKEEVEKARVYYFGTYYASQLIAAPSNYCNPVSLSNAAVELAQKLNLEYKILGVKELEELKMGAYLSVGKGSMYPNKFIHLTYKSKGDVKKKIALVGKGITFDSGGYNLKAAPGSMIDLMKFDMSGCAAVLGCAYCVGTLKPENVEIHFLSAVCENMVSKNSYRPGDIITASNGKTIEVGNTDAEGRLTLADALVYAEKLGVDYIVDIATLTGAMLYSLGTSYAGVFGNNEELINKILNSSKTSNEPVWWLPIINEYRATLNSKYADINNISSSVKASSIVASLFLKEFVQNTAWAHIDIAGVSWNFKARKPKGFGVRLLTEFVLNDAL

[4] = molecular target: T2, Replicative DNA helicase DnaB (Mycobacterium tuberculosis, UniProt P9WMR3); test: DnaB intein splicing inhibitors, dose response, biochemical, cell-free fluorescence (AID 449749); assay type: functional
T2 sequence (P9WMR3 whole entry): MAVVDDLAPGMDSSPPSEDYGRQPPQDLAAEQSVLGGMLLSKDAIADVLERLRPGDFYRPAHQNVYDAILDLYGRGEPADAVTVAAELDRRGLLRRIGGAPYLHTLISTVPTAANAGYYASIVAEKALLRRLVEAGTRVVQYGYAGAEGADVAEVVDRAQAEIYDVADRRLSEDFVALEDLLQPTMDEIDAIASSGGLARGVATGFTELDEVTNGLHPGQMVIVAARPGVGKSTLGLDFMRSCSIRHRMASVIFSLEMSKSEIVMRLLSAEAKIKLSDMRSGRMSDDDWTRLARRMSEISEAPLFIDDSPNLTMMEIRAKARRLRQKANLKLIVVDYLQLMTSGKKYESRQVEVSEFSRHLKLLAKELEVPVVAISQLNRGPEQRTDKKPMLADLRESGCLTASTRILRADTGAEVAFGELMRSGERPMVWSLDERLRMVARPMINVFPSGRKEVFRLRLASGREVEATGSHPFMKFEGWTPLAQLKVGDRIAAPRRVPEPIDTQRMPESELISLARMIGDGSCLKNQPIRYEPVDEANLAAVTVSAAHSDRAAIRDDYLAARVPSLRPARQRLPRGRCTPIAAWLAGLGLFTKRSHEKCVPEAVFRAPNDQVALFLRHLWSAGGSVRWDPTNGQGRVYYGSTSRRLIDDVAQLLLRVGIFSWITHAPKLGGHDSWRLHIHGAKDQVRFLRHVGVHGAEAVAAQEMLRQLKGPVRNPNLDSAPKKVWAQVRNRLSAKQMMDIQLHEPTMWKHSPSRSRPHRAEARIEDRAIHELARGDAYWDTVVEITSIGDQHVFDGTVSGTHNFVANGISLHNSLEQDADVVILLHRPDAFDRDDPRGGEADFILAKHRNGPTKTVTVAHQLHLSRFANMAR

Protein RecA = molecular target: T3, Protein RecA (Mycobacterium tuberculosis, UniProt P9WHJ3); test: Fluorescence Cell-Free Homogeneous Dose Retest to Identify Inhibitors of RecA-Intein Splicing Activity. [Related pubchem assays (depositor defined):AID2097, AID2223, AID489010, AID492950]; assay type: functional
T3 sequence (P9WHJ3 whole entry): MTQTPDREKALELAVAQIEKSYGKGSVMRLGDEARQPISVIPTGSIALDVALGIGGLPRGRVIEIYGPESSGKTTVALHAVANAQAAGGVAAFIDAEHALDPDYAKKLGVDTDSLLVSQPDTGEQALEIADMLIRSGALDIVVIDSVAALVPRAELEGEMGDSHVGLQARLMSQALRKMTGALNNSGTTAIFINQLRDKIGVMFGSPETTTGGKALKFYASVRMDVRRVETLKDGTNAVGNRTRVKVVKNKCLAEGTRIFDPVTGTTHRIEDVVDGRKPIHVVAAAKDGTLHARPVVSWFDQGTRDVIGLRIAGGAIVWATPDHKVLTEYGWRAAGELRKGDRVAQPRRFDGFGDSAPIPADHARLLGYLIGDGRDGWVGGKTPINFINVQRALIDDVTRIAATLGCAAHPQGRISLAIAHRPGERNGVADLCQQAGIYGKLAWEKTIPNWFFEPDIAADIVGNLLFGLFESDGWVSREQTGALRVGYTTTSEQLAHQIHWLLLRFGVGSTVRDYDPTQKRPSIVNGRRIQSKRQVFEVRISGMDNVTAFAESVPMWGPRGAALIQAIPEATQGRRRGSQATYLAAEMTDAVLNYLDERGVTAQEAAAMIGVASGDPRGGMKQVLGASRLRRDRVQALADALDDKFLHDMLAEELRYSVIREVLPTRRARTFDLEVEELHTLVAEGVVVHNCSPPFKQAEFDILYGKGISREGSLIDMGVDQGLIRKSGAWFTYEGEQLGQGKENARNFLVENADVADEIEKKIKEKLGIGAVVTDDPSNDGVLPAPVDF

BJ [5] = test: cytotoxicity toward BJ-TERT fibroblasts, dose response, cell-based, RAS-independent, luminescence (AID 1933); assay type: functional; conditions: Homo sapiens
BJ [6] = test: cells; assay type: functional, cell-based; conditions: Homo sapiens
BJ [7] = test: cytotoxicity toward BJ-TERT-LT-ST fibroblasts, dose response, cell-based, RAS-independent, luminescence (AID 1935); assay type: functional; conditions: Homo sapiens;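 also: BJ fibroblasts immortalized with TERT plus LT and ST oncogenes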
[8] = cytotoxicity toward DRD oncogenic fibroblasts, dose response, cell-based, non-viral oncogenic, luminescence (AID 1934); assay type: functional; conditions: Homo sapiens
[9] = cytotoxicity in HEK-293T cells, dose response, cytotoxicity control for TCR NF-kB inhibitor project, luminescence, T-cell screen hits (AID 489026); assay type: functional, cell-based;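 also: cells exposed to compound about 14 hours before the viability readout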
Fatty acid synthase [10] = molecular target: T4, Fatty acid synthase (Homo sapiens, UniProt P49327); test: FAS thioesterase domain inhibitors, dose response, biochemical, endpoint fluorescence intensity, uHTS hits (AID 624327); assay type: functional;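 also: fluorescence from hydrolysis of an O-methyl fluorescein acyl ester substrate by the enzyme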
T4 sequence (P49327 whole entry, the tested form may be a part): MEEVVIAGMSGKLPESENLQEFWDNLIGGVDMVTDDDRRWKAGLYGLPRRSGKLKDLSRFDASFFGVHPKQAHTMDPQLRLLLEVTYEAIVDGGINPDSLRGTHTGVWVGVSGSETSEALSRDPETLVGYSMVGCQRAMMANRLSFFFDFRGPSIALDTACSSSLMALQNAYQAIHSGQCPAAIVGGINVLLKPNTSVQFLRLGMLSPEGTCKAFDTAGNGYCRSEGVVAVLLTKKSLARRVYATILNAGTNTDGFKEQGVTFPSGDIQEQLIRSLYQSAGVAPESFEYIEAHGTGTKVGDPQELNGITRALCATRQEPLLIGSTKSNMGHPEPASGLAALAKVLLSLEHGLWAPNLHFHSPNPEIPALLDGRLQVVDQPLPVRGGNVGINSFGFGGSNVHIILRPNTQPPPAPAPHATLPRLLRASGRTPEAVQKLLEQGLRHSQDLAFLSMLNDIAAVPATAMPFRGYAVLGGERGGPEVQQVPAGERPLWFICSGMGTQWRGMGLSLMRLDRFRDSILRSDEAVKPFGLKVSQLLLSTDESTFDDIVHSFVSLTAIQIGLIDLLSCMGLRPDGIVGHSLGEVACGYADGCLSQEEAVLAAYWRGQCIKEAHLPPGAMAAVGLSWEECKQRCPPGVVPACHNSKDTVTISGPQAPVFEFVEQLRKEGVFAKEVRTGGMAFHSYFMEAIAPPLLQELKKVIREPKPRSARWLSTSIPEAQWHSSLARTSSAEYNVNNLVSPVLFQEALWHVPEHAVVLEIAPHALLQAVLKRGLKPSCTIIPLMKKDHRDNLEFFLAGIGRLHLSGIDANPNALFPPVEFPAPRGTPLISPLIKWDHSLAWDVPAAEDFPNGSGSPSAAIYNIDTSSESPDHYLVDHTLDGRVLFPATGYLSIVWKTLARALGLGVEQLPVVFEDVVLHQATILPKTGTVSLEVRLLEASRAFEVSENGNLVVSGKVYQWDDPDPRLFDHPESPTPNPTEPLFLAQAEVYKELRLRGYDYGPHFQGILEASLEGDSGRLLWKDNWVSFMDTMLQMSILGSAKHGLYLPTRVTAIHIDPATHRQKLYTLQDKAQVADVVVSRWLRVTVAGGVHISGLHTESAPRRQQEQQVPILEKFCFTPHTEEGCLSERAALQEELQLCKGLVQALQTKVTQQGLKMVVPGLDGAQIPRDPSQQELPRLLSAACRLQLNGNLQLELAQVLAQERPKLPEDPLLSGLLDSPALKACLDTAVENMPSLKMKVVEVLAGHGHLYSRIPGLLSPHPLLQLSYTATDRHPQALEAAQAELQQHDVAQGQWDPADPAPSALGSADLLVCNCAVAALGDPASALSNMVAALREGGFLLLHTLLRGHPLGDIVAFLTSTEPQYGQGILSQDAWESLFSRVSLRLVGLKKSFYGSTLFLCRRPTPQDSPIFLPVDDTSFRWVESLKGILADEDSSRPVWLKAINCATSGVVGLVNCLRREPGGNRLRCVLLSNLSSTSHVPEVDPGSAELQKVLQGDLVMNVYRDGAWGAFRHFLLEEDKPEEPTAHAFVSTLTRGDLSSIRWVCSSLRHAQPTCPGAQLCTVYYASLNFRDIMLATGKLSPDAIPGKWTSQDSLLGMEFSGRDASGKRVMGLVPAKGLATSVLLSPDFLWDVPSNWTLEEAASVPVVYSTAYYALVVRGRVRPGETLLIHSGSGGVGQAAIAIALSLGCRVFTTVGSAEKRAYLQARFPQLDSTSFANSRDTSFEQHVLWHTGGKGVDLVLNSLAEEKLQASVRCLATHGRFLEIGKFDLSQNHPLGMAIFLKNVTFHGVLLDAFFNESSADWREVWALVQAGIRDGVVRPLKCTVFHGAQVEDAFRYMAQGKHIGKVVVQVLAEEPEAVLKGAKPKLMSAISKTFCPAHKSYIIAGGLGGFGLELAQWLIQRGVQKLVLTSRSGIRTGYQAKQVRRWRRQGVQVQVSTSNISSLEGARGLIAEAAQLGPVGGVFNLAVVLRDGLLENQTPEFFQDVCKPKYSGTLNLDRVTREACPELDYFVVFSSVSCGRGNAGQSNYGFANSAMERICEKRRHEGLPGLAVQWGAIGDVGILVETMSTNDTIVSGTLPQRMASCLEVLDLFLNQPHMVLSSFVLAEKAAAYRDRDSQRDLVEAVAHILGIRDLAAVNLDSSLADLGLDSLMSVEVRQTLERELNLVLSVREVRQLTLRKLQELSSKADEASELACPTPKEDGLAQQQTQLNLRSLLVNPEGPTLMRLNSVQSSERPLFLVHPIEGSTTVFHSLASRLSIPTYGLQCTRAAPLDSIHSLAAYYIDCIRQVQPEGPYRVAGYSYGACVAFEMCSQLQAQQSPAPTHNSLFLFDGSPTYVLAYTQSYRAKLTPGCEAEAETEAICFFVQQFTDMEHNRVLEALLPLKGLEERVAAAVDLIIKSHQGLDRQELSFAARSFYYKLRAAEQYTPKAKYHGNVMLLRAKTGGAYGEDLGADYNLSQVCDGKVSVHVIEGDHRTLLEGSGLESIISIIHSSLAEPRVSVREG

Fatty acid synthase [11] = molecular target: T4, Fatty acid synthase; test: FAS thioesterase domain inhibitors, dose response, biochemical, kinetic fluorescence intensity (AID 624326); assay type: functional;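 also: rate of fluorescence rise from hydrolysis of a fluorogenic O-methyl fluorescein ester substrate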
Paired box protein Pax-8 = Paired box protein Pax-8 (Homo sapiens, UniProt Q06710); test: inhibitors of PAX8-driven TPO luciferase reporter, dose response, RMG-I cells, cherry-pick (AID 687027); assay type: functional, cell-based;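 also: luciferase reporter driven by Pax8 target thyroperoxidase promoter measured by SteadyGlo luminescence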
[12] = molecular target: G-protein coupled receptor 55 (Homo sapiens, UniProt Q9Y2T6); test: GPR55 antagonists blocking LPI-driven arrestin recruitment, primary screen, imaging, U2OS, beta-arrestin-GFP, LPI agonist (AID 2013); assay type: functional;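 also: antagonist potency measured as reduced agonist-driven arrestin aggregation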
G-protein coupled receptor 55, sequence (Q9Y2T6 whole entry): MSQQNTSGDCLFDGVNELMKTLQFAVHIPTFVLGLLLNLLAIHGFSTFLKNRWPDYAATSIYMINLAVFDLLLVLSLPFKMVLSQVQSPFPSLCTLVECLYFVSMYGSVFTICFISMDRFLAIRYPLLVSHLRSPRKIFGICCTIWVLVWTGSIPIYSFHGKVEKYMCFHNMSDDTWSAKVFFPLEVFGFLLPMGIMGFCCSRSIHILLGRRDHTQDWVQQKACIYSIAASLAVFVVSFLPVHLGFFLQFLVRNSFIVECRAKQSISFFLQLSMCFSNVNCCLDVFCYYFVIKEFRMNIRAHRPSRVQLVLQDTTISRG

Genome polyprotein = Genome polyprotein (dengue virus type 2, UniProt P29990); test: Dengue-2 NS5 methyltransferase inhibitors, primary screen, biochemical, confirmation dose response (AID 588689); assay type: functional
Genome polyprotein, sequence (P29990 2492-3391 limits assumed): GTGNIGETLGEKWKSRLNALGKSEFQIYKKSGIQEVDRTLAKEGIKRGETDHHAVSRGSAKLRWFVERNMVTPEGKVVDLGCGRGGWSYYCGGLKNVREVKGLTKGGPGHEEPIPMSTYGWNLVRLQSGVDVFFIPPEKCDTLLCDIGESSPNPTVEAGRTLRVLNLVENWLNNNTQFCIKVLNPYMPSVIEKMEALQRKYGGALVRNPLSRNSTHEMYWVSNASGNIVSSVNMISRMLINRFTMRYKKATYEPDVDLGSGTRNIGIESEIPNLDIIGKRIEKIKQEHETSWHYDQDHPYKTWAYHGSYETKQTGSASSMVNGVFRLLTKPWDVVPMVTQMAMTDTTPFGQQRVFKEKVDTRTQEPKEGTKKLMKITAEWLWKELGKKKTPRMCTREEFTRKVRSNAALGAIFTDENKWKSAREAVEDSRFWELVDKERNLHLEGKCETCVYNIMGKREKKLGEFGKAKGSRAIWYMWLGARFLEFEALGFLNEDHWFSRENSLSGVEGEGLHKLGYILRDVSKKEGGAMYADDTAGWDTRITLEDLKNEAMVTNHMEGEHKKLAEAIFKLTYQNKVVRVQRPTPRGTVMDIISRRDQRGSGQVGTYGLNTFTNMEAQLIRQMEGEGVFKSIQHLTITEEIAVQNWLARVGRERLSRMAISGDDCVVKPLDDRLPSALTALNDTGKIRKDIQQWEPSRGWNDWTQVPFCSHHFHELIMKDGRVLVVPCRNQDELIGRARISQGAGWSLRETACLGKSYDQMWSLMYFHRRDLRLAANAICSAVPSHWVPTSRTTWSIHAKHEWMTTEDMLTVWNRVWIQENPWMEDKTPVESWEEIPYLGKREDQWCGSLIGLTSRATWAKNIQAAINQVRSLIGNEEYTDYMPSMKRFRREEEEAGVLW

[13] = NIH-3T3 fibroblast cytotoxicity, dose response, cytotoxicity control, cell-based, fluorescence, Alamar Blue, secondary assay (AID 2327); assay type: functional;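 also: NIH-3T3 mouse fibroblasts cultured with fluconazole at 8 µg/mL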
[14] = C. albicans growth with fluconazole, confirmation, fluorescence, retest (AID 2467); assay type: functional, cell-based
[15] = molecular target: T5, Serine/threonine-protein phosphatase (Candida dubliniensis (strain CD36 / CBS 7987 / NCPF 3949 / NRRLY-17841) (Yeast), UniProt B9W6M3); test: calcineurin pathway inhibitors in yeast reporter, dose response, S. cerevisiae, CDRE-lacZ, luminescence, secondary (AID 2388); assay type: functional, cell-based;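 also: yeast reporter cells carrying a calcineurin-responsive lacZ construct stimulated with calcium chloride; luminescent beta-galactosidase reporter signal in whole cells rather than isolated phosphatase activity; potency for inhibition where a drop in reporter signal means calcineurin blockade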
T5 sequence (B9W6M3 whole entry): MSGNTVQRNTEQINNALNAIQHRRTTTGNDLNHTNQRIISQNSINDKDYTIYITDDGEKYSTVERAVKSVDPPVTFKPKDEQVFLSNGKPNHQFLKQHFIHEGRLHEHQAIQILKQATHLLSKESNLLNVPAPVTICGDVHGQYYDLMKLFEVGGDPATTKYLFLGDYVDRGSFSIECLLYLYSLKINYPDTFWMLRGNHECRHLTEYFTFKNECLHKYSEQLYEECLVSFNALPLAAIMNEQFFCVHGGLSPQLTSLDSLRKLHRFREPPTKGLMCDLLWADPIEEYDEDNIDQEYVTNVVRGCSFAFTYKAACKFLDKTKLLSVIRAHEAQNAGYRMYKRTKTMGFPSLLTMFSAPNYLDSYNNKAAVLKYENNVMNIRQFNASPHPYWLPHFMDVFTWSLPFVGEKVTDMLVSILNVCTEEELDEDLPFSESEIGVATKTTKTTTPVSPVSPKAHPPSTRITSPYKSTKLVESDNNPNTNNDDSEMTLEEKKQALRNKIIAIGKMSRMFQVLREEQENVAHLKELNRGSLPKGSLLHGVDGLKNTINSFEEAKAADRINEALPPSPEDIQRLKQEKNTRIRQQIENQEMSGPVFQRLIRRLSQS

[16] = molecular target: ATP-dependent molecular chaperone HSP82 (Candida albicans (strain WO-1) (Yeast), UniProt C4YTQ8); test: loss of DOC-induced GRE-beta-galactosidase reporter signal, dose response, Hsp90 inhibitor project, S. cerevisiae, luminescence (AID 2400); assay type: functional, cell-based;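 also: beta-galactosidase luminescence from glucocorticoid response element reporter as proxy for Hsp90 function; inhibitor potency where signal loss means Hsp90 inhibition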
ATP-dependent molecular chaperone HSP82, sequence (C4YTQ8 whole entry): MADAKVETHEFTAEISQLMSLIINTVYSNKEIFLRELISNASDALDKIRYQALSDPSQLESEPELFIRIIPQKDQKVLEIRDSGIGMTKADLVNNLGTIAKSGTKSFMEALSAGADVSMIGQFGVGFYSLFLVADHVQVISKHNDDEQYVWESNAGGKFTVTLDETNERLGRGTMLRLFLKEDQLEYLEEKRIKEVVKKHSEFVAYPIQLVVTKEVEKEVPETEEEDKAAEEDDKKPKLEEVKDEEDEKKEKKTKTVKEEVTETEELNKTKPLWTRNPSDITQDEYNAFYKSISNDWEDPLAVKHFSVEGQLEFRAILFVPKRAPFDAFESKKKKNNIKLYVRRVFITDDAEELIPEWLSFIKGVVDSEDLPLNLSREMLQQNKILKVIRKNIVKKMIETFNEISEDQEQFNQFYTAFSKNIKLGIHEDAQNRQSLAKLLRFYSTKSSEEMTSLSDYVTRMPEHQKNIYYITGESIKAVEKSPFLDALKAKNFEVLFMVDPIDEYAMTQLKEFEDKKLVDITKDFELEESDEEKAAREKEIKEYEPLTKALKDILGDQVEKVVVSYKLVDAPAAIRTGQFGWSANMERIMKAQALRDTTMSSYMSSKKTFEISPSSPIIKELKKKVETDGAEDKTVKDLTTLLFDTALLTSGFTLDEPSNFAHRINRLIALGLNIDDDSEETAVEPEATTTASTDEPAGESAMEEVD

[17] = HEp-2 cell cytotoxicity, dose response, cytotoxicity control for RSV inhibitor project, HTS (AID 2410); assay type: functional; conditions: human respiratory syncytial virus
[18] = molecular target: T6, Carboxy-terminal domain RNA polymerase II polypeptide A small phosphatase 1 (Homo sapiens, UniProt Q9GZU7); test: inhibitors of CTDSP1, concentration-response testing, biochemical assay, absorbance-based, actives from ultra-high-throughput screening (AID 540297); assay type: functional
T6 sequence (Q9GZU7 whole entry): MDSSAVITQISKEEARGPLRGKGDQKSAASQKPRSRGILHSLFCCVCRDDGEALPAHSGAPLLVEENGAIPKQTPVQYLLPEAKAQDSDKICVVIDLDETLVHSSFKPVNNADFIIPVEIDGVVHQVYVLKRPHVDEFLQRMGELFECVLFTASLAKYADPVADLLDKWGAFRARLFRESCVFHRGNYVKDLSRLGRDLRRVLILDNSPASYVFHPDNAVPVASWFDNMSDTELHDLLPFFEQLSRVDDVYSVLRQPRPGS

CCn1c(NC(=O)C2CCCCC2)nc2ccccc21
CC50 [1]: 31.7 µM (active)
CC50 [2]: > 20 µM (active)
IC50 (cells): 1.33 µM (active)

CCN1CCN(C2=C(Cl)C(=O)N(c3ccnc(Cl)c3)C2=O)CC1
IC50 [3]: > 50 µM (inconclusive)

N#CC1=C(N)Oc2[nH]nc(-c3ccccc3)c2C1c1cccnc1 (stereo not drawn)
IC50 (Leucine aminopeptidase): 60.4 µM (active)
AC50 [4]: 6.14 µM (active)
EC50 (Protein RecA): 1.79 µM (active)

CSc1ccc(COC(=O)c2cc([N+](=O)[O-])ccc2N2CCOCC2)cc1
EC50 (BJ [5]): 0.652 µM (inconclusive)
EC50 (BJ [6]): 1.09 µM (active)
EC50 (BJ [7]): 0.385 µM (active)
EC50 [8]: 0.653 µM (active)
IC50 [9]: > 80 µM (inactive)
IC50 (Fatty acid synthase [10]): 4.08 µM (active)
IC50 (Fatty acid synthase [11]): 3.26 µM (active)
AC50 (Paired box protein Pax-8): 0.619 µM (active)

CC(C)c1ccc(NC(=S)NN(c2ccccc2)c2ccccc2)cc1
IC50 [12]: 0.793 µM (active)

Cc1ccc(S(=O)(=O)NN2C(=O)/C(=C/c3cccc(F)c3)SC2=S)cc1
IC50 (Genome polyprotein): 27.2 µM (active)

COc1ccc(C(=O)N2c3ccccc3C=CC2C#N)cc1 (stereo not drawn)
EC50 [13]: > 160 µM (inconclusive)
EC50 [14]: 0.186 µM (active)
EC50 [15]: > 180 µM (inactive)
EC50 [16]: > 150 µM (inactive)

CSC(=Nc1ccc(Br)cc1F)NS(=O)(=O)c1cccs1
EC50 [13]: > 150 µM (inactive)
EC50 [14]: 0.239 µM (active)
EC50 [15]: > 180 µM (inactive)
EC50 [16]: 18.6 µM (active)

Cc1ccc(N2C(=O)C(Cl)=C(N3CCN(C)CC3)C2=O)c(C)c1
AC50 [4]: 8.01 µM (active)
EC50 (Protein RecA): 2.35 µM (active)
IC50 (Genome polyprotein): 40.5 µM (active)

Cc1ccccc1-n1cnnc1SCC(=O)N1CCN(c2ccccc2)CC1
IC50 [3]: 36.3 µM (active)

O=C(Oc1cc2oc(=O)c3c(c2cc1Cl)CCCC3)c1cccs1
EC50 [13]: > 150 µM (inactive)
EC50 [14]: 1.12 µM (active)
EC50 [15]: > 180 µM (inactive)
EC50 [16]: 21.4 µM (active)

COc1ccc(CN2C(=O)/C(=C/c3ccncc3)SC2=S)cc1
CC50 [17]: 10.3 µM (active)
EC50 (BJ [5]): 13.8 µM (active)
EC50 (BJ [6]): > 150 µM (inconclusive)
EC50 (BJ [7]): > 75 µM (inconclusive)
EC50 [8]: 16.9 µM (active)
CC50 [1]: 18 µM (active)
CC50 [2]: 7.52 µM (active)
IC50 (cells): 21.2 µM (active)

O=C1C2CC=CCC2C(=O)N1c1nc(-c2cccnc2)n[nH]1 (stereo not drawn)
IC50 [3]: > 100 µM (not active)

Cc1oc2c(C)c3oc(=O)c(CC(=O)N[C@@H](CC(C)C)C(=O)N[C@@H](Cc4ccccc4)C(=O)O)c(C)c3cc2c1C
IC50 (Genome polyprotein): 72.6 µM (active)
IC50 [18]: 4.59 µM (active)

CCOc1ccccc1C(=O)Nc1ccc2nc(N3CCN(c4ncccn4)CC3)cc(C)c2c1
IC50 [9]: > 80 µM (inactive)

S=C1SCN(Cc2cccnc2)CN1Cc1ccccc1
CC50 [1]: 15.2 µM (active)
CC50 [2]: 11 µM (active)
IC50 (cells): 18.2 µM (active)
